Assay results published in the kinase profiling compilation of Christmann-Franck et al. (2016).

Experiments:
[1] = target: NLK (human) (UniProt Q9UBE8)
[2] = target: BMP2K (human) (UniProt Q9NSY1)
[3] = target: MAP4K2 (human) (UniProt Q12851)
[4] = target: MAP3K4 (human) (UniProt Q9Y6R4)
[5] = target: ULK3 (human) (UniProt Q6PHR2)
[6] = target: MERTK (human) (UniProt Q12866)
[7] = target: PRKCQ (human) (UniProt Q04759)
[8] = target: CAMK2G (human) (UniProt Q13555)
[9] = target: TAOK1 (human) (UniProt Q7L7X3)
[10] = target: TBK1 (human) (UniProt Q9UHD2)
Sequence of TBK1 (human) (Q9UHD2 whole entry, looked up): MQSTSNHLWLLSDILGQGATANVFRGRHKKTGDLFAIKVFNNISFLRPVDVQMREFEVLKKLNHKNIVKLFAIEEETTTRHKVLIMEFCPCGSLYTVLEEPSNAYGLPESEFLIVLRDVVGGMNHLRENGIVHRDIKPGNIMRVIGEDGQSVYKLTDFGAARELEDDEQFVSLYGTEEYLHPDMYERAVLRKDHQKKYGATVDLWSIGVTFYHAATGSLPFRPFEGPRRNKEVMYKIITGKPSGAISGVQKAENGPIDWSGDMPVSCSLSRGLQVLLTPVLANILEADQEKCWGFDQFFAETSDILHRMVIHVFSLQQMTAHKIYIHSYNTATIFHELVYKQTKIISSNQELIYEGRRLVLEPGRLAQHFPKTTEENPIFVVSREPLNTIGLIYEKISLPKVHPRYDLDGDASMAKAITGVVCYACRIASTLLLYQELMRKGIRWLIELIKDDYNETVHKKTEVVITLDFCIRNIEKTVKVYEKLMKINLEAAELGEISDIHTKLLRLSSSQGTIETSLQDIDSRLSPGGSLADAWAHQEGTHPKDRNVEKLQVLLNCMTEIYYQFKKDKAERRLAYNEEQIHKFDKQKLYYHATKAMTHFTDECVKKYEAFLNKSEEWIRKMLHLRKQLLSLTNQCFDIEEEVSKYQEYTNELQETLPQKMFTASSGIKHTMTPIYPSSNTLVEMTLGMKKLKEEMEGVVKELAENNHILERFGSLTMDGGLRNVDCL

[11] = target: MAP3K1 (human) (UniProt Q13233)
[12] = target: ABL2 (human) (UniProt P42684)
Sequence of ABL2 (human) (P42684 whole entry, looked up): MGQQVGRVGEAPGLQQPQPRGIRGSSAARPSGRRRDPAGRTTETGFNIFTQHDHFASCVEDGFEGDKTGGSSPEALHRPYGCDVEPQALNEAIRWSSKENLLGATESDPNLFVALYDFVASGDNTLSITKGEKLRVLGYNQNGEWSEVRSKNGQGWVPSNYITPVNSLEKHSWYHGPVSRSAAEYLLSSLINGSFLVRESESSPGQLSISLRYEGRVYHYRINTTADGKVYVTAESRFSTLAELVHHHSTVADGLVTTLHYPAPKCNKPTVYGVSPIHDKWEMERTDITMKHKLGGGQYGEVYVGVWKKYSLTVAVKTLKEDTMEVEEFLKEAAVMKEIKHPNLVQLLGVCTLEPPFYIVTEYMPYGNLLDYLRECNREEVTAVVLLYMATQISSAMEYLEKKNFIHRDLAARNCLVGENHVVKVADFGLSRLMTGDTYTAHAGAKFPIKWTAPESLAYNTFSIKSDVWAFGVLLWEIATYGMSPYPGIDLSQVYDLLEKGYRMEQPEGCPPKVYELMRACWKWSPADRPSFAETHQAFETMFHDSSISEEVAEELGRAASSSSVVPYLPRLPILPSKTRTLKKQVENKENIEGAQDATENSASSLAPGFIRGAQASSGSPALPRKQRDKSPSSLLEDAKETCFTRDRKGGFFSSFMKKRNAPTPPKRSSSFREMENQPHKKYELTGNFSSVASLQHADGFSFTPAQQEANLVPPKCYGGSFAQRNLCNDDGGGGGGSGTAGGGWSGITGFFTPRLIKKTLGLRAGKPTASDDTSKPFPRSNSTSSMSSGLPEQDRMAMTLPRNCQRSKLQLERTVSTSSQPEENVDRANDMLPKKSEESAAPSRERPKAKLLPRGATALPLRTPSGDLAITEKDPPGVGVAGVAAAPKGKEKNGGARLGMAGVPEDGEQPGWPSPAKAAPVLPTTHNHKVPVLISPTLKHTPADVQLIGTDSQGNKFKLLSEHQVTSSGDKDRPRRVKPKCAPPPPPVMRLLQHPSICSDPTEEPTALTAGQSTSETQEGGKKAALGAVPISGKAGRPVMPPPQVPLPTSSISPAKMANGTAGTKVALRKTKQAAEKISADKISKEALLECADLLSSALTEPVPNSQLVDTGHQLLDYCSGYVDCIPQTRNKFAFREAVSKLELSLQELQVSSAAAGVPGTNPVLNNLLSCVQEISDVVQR

[13] = target: HCK (human) (UniProt P08631)
[14] = target: RPS6KA3 KD1 KD2 (human) (UniProt P51812)
[15] = target: CSK (human) (UniProt P41240)
[16] = target: FRK (human) (UniProt P42685)
[17] = target: MAP3K3 (human) (UniProt Q99759)
[18] = target: EIF2AK1 (human) (UniProt Q9BQI3)
[19] = target: MAP4K5 (human) (UniProt Q9Y4K4)
[20] = target: SYK (human) (UniProt P43405)
[21] = target: CAMKK2 (human) (UniProt Q96RR4)
[22] = target: PRKAA1 (human) (UniProt Q13131)
[23] = target: MAP3K11 (human) (UniProt Q16584)
[24] = target: TNK2 (human) (UniProt Q07912)
Sequence of TNK2 (human) (Q07912 whole entry, looked up): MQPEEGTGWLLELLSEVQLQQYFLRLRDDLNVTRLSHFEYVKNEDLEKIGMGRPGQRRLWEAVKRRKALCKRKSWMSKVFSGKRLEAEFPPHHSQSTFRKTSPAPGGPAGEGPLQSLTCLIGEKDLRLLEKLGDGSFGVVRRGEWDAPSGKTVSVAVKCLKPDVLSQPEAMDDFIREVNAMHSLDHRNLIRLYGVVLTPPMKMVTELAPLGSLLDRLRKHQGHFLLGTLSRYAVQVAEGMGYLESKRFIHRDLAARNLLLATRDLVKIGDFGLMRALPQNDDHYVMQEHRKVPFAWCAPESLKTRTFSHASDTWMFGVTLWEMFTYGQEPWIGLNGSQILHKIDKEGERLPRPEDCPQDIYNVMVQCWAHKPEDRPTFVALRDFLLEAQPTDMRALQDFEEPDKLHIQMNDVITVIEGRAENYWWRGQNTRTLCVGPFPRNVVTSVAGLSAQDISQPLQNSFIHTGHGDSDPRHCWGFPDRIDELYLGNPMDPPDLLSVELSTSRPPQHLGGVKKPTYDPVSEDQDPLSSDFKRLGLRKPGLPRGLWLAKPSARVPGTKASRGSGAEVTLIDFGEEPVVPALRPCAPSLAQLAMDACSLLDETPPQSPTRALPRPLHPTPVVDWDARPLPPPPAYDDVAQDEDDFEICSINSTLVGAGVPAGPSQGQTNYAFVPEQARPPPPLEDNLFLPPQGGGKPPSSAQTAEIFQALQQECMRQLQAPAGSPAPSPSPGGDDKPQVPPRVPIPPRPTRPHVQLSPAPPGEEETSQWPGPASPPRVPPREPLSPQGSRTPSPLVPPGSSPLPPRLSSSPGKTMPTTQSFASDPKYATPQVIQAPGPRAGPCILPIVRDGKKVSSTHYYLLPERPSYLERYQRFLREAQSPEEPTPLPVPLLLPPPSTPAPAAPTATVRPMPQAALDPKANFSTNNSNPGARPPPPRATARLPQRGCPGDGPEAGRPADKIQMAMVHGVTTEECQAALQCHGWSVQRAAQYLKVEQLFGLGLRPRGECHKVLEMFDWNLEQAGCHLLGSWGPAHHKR

[25] = target: PTK2B (human) (UniProt Q14289)
[26] = target: EPHB1 (human) (UniProt P54762)
[27] = target: ACVR1B (human) (UniProt P36896)
[28] = target: CLK2 (human) (UniProt P49760)
[29] = target: TEC (human) (UniProt P42680)
[30] = target: BTK (human) (UniProt Q06187)
[31] = target: SIK3 (human) (UniProt Q9Y2K2)
Sequence of SIK3 (human) (Q9Y2K2 whole entry, looked up): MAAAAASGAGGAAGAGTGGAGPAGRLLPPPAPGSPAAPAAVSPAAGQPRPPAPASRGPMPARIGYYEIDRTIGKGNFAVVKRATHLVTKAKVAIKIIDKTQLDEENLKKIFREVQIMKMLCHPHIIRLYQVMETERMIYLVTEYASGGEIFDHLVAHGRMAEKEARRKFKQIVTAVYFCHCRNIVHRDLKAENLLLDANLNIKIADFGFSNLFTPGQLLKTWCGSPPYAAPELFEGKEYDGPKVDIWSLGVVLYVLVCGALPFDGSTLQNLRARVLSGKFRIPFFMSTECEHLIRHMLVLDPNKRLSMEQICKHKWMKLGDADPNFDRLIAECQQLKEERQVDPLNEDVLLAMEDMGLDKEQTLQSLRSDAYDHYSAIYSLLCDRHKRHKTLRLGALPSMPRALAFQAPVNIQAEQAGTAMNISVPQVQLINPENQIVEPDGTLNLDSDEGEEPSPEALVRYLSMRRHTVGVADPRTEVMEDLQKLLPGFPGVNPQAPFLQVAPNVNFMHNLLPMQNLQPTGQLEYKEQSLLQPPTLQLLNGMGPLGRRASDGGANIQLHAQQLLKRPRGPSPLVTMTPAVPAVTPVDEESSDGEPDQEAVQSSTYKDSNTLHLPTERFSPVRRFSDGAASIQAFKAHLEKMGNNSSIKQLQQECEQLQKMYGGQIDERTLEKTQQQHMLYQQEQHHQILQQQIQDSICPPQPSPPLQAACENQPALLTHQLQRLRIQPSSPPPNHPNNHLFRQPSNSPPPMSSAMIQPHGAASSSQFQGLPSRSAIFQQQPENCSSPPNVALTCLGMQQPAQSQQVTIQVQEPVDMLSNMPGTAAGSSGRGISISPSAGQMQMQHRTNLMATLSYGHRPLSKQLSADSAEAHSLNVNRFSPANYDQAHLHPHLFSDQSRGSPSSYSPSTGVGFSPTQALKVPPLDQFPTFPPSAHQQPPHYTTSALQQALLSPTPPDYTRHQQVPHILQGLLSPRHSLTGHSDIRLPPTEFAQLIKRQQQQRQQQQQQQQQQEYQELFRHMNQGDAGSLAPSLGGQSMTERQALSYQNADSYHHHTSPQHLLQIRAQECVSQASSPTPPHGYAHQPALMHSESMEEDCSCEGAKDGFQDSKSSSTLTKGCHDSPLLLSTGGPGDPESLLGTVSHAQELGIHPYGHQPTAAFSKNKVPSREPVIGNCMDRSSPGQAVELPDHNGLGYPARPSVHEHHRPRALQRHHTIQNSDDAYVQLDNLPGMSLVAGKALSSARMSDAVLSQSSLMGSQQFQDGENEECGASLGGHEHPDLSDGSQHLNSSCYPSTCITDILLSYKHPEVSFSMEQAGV

[32] = target: SMG1 (human) (UniProt Q96Q15)

Sequence of PRKCQ (human) (Q04759 whole entry, looked up): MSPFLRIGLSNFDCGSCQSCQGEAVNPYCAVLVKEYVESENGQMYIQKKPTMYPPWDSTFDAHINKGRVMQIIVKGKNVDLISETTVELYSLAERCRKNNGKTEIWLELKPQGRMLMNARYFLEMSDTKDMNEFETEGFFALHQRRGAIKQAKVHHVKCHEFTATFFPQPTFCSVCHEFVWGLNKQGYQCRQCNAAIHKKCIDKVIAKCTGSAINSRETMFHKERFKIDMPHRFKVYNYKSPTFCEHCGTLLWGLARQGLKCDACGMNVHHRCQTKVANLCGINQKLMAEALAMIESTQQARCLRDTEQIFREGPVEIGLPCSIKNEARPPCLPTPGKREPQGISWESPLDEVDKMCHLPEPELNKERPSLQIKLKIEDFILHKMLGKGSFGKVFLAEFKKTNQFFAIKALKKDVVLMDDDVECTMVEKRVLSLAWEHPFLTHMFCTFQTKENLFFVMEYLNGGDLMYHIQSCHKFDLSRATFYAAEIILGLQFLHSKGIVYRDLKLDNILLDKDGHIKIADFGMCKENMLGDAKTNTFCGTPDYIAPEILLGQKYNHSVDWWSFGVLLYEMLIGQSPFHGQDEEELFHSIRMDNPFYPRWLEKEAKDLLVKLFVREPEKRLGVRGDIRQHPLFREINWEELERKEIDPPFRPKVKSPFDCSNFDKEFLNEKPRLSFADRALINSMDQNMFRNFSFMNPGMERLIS

IC50 [1]: 1100 nM
IC50 [2]: 1060 nM
IC50 [3]: 431 nM
IC50 [4]: 299 nM
IC50 [5]: 842 nM
IC50 [6]: 746 nM
IC50 [7]: 1560 nM
IC50 [8]: 1520 nM
IC50 [9]: 2630 nM
IC50 [10]: 1260 nM
IC50 [11]: 156 nM
IC50 [12]: 71 nM
IC50 [13]: 580 nM
IC50 [14]: 2390 nM
IC50 [15]: 707 nM
IC50 [16]: 507 nM
IC50 [17]: 612 nM
IC50 [18]: 1220 nM
IC50 [19]: 493 nM
IC50 [20]: 745 nM
IC50 [21]: 1430 nM
IC50 [22]: 1060 nM
IC50 [23]: 1540 nM
IC50 [24]: 316 nM
IC50 [25]: 1220 nM
IC50 [26]: 369 nM
IC50 [27]: 91 nM
IC50 [28]: 1100 nM
IC50 [29]: 567 nM
IC50 [30]: 175 nM
IC50 [31]: 346 nM
IC50 [32]: 836 nM
SMILES: COc1cc(Nc2c(C#N)cnc3cc(OCCCN4CCN(C)CC4)c(OC)cc23)c(Cl)cc1Cl
